Experiments:
hair [1] = assay: Measurement of swelling degree of hair; details: 100×(D1−D0)/D0 of hair diameter
Experimental: Hair was immobilized in a concave part of a glass slide for biochemical count having a depth of the concave part of 200 μm (manufactured by NIPPON Genetics Co, Ltd.), a cover glass was placed on the glass slide to cover the concave part, the diameter of the hair was measured 10-14 times, and the mean thereof was calculated (D0). Thereafter, a sample was injected from the clearance between the cover glass and the glass slide, and left standing for 3 min or 5 min. The diameter of the hair was measured 10-14 times, and the mean was calculated (D1).
As the sample, ion exchange water, phosphate buffer (pH 6.2), protein-glutaminase solution (6.2 mg/mL, pH 6.2) and 1% aqueous ammonia (pH 11.8) were used. The swelling degree was calculated from the measured diameters of the hair (D0 and D1) according to the following formula. swelling degree (%)=100×(D1−D0)/D0

hair [2] = assay: Observation of hair damage (microscopic images ×400); details: 3 min after injection of sample
Experimental: In the test of the above-mentioned 1, the condition of the hair 3 min after injection of ion exchange water, protein-glutaminase solution, or 1% aqueous ammonia was observed.

perm-treated hair = assay: Quantification of free ammonia produced by reaction of protein-glutaminase with perm-treated hair; type: biochemical, human; details: 37° C., 1 hr
Experimental: Hair of Japanese women in their 20's was perm-treated and used as an experiment sample. The perm treatment included 1) immersing the hair in first perm liquid at 33° C. for 15 min and rinsing the first liquid with tap water at 35-40° C., and 2) immersing the hair in second perm liquid at 33° C. for 15 min and sufficiently rinsing same with tap water at 35-40° C. The continuous operation of 1) and 2) was repeated 4 times, and the hair was washed with 15% sodium laureth sulfate (EMAL E27C; Kao Corporation) and sufficiently rinsed with tap water at 35-40° C. The hair was immersed in a buffer, and treated with occasional stirring at room temperature for 10 min. The hair was combed out, hung while avoiding overlapped hair, and dried in a thermo-hygrostat room (23° C., 40% R.H.).
Using an Ammonia test kit (manufactured by Wako Pure Chemical Industries, Ltd.), the amount of free ammonia produced by reaction of protein-glutaminase with the above-mentioned perm-treated hair was quantified.
The protein-glutaminase solution (2 ml) at a concentration shown in Table 4 was added to a bundle of the above-mentioned perm-treated hair (0.25 g), and the amount of ammonia in a sample after reaction at 37° C. for 1 hr was measured. The amount of ammonia produced was shown as a value after subtraction of the amount of ammonia produced without addition of protein-glutaminase (Comparative Example 4).

[3] = test system: 3D cultured human skin model: TESTSKIN LSE-high; assay: Permeability of FITC-labeled Gly-Gly-Gly to artificial cultured skin; type: cell-based; details: protein-glutaminase solution 4 mg/ml, 100 μl, 37° C. 30 min before peptide; measured after 2, 5, 20 hr; versus phosphate buffer (−)
Experimental: Using glycylglycylglycine (hereinafter indicated as “Gly-Gly-Gly”) (manufactured by PEPTIDE INSTITUTE, INC.) as a peptide to be evaluated for skin permeability, the permeability of Gly-Gly-Gly to commercially available artificial cultured skin (3D cultured human skin model: TESTSKIN LSE-high, manufactured by Toyobo Co., Ltd.) was evaluated. Gly-Gly-Gly was labeled with fluorescein by using fluorescein isothiocyanate (FITC-I, manufactured by Chemical-Dojin Co., Ltd.) to enable highly sensitive detection.
The cultured skin is cultured on a polycarbonate membrane on the bottom of a transwell, and set on a 6-well assay plate. […] The permeability was evaluated by measuring the amount of FITC-labeled Gly-Gly-Gly that permeated the cultured skin to move into phosphate buffer (−).
First, a protein-glutaminase solution (4 mg/ml, 100 μl) was added to the top of the cultured skin and incubated at 37° C. for 30 min, after which a FITC-labeled Gly-Gly-Gly sample (100 μl) was added to the top of the cultured skin. After 2, 5, and 20 hr, the amount of FITC-labeled Gly-Gly-Gly that permeated the cultured skin and moved into phosphate buffer (−) was measured. […] The fluorescence intensity was measured under the conditions of exciting wavelength 492 nm and fluorescence wavelength 520 nm. The fluorescence intensity was measured using platereader SpectraMaxM2 (manufactured by Molecular Devices, LLC.).

concentration of protein-glutaminase solution at which it reacted with perm-treated hair (perm-treated hair)	Molecule	swelling degree (%) after 3 min (hair [1]; hair left standing in sample for 3 min)	swelling degree (%) after 5 min (hair [1]; hair left standing in sample for 5 min)	condition of the hair (hair damage) (hair [2])	permeability of FITC-labeled Gly-Gly-Gly through cultured skin (fluorescence intensity) [3]
	N [Comparative Example 3, 1% aqueous ammonia]	11.1%	11.3%	cuticles on the hair surface were lifted	
not less than 0.01 mg/ml	protein-glutaminase: protein-glutaminase of Chryseobacterium proteolyticum, secretory-expressed in Corynebacterium glutamicum, activated by protease, purified, dissolved in phosphate buffer (protein, listed as Chryseobacterium proteolyticum) LASVIPDVATLNSLFNQIKNQSCGTSTASSPCITFRYPVDGCYARAHKMRQILMNNGYDCEKQFVYGNLKASTGTCCVAWSYHVAILVSYKNASGVTEKRIIDPSLFSSGPVTDTAWRNACVNTSCGSASVSSYANTAGNVYYRSPSNSYLYDNNLINTNCVLTKFSLLSGCSPSPAPDVSSCGF				improved permeability of peptide
